ChEMBL document CHEMBL3507680, “University of Dundee, Gates Library screen for HepG2 cell viability”

Assay: Human HepG2 cell viability assay in 384 well format
Format: toxicity, cell-based
Set-up: dose 125 nL, time 70.5 hour; concentration not given beside the values
Details: HepG2 cells, read-out: Inhibition

COc1cccc(S(=O)(=O)CCN2CCN(CCO)CC2)c1
cytotoxicity at 70.5 h: -2.82%

CCC(CC)(CC(=O)OC)NC(=O)Nc1nnc(-c2ccccn2)s1
cytotoxicity at 70.5 h: 9.93%

CCc1noc(C)c1C(=O)NCC(c1ccc(C)cc1)N(C)C (centres undefined)
cytotoxicity at 70.5 h: -3.99%

COc1ccc(CN2CCC3(CC2)CCN(c2cnn(C)c2)C3=O)cc1
cytotoxicity at 70.5 h: -6.09%

Cc1c[nH]c(CN(C)C(=O)c2cccc(CCC(C)(C)O)c2)n1
cytotoxicity at 70.5 h: -5.47%

Cc1cccc(C(C(=O)N2CCN(C(=O)c3ccc[nH]3)CC2)N(C)C)c1 (centres undefined)
cytotoxicity at 70.5 h: -8.99%

Fc1ccccc1CN1C[C@H](OCC2CCOCC2)[C@H]2OCCC[C@H]21
cytotoxicity at 70.5 h: 17.2%

COCCS(=O)(=O)N1CCN(c2cccc(O)c2)CC1
cytotoxicity at 70.5 h: -2.61%

CC(C)c1noc(CCNC(=O)N2CCC(O)(C(F)(F)F)C2)n1 (centres undefined)
cytotoxicity at 70.5 h: -14.8%

COCCC(=O)NCc1ccc(-c2ccccc2C(=O)O)cn1
cytotoxicity at 70.5 h: -6.35%

CN(C)[C@@H]1CN(C(=O)c2ccc(C#N)cc2)[C@@H]2CCCO[C@H]12
cytotoxicity at 70.5 h: 3.23%

CN(C)C(=O)N[C@H]1CN(C2CCOCC2)[C@@H]2CCCO[C@H]12
cytotoxicity at 70.5 h: 17.6%

NC(=O)c1c(NC(=O)CCC(=O)O)sc2c1CCc1ccccc1-2
cytotoxicity at 70.5 h: -9.16%

COc1ccc(-c2c(C)nn3c(=N)c(C#N)n[nH]c23)cc1OC
cytotoxicity at 70.5 h: -15.3%

Cc1nn(C)c(Cl)c1CNCc1cccnc1N1CCN(C)CC1
cytotoxicity at 70.5 h: 2.87%

Cc1cc(C(F)(F)F)c2c(C3CCN(S(=O)(=O)N(C)C)CC3)noc2n1
cytotoxicity at 70.5 h: -9.87%

CNC1CCCN(Cc2noc(C3CC3)n2)C1 (centres undefined)
cytotoxicity at 70.5 h: -7.48%

CCc1nc(NC(=O)NCCc2cccc(C)n2)nn1C
cytotoxicity at 70.5 h: -12.7%

CC(O)CN1CCC(=O)N(Cc2ccccc2)Cc2ccccc21 (centres undefined)
cytotoxicity at 70.5 h: 21.2%

C[C@H]1CN(CC2CCOCC2)C[C@@]12CCN(Cc1cccnc1)C2=O
cytotoxicity at 70.5 h: -9.39%

CN(Cc1ccccn1)C1CCCN(Cc2noc(C3CC3)n2)C1 (centres undefined)
cytotoxicity at 70.5 h: -8.62%

COC(=O)CNC(=O)Cn1ccc2ccc(F)cc21
cytotoxicity at 70.5 h: -3.86%

CCOCCCC(=O)NCC(c1ccccc1)N1CCc2sccc2C1 (centres undefined)
cytotoxicity at 70.5 h: 16.8%

O=C(C1CCCCC1)N1CC2(CCNCC2)C1
cytotoxicity at 70.5 h: 1.58%

CCc1cc(NCCN2CCNC2=O)n2nccc2n1
cytotoxicity at 70.5 h: 3.72%

CC(C)C(NC(=O)c1cnc(N2CCOCC2)nc1)c1cccs1 (centres undefined)
cytotoxicity at 70.5 h: 7.3%

COc1ccccc1CN(C)Cc1ccnc(C2CCCO2)n1 (centres undefined)
cytotoxicity at 70.5 h: -2.34%

COCc1cccc(CNC(=O)c2c(C)noc2C(C)C)c1
cytotoxicity at 70.5 h: 10.6%

O=C(NCCOc1ccc(Cl)cn1)NCCc1ccccn1
cytotoxicity at 70.5 h: -3.16%

Cc1cnc(CC2COCCN(Cc3nccn3C)C2)cn1 (centres undefined)
cytotoxicity at 70.5 h: -1.89%

CCOCCN1CCN(Cc2csc(-c3cnn(C)c3)n2)CC1
cytotoxicity at 70.5 h: -13.2%

CSCCC(NC(=O)c1ccccc1)C(=O)N(C)Cc1ccsc1 (centres undefined)
cytotoxicity at 70.5 h: -7%

c1csc(CN2CCO[C@H]3[C@H](OCCN4CCCC4)CC[C@@H]32)n1
cytotoxicity at 70.5 h: -11.1%

CC(C)(C(=O)NCC(N)=O)c1ccccc1F
cytotoxicity at 70.5 h: -5.2%

O=C(CCn1ccnc1)N1C[C@@H](O)[C@H](Oc2cccc(F)c2)C1
cytotoxicity at 70.5 h: 0.895%

Cn1c(=O)c2cc(C(=O)NCc3ccccn3)ccc2n(C)c1=O
cytotoxicity at 70.5 h: -4.37%

CN(C)S(=O)(=O)N1CCCCCC1c1cc(-c2ccc(F)cc2)no1 (centres undefined)
cytotoxicity at 70.5 h: 1.28%

O=C(Cc1ccc(CO)cc1)N1CCN(CC2CC2)[C@@H]2CS(=O)(=O)C[C@@H]21
cytotoxicity at 70.5 h: 2.89%

CC(C)[C@H]1CN(C2Cc3ccccc3C2)C[C@@H]1NS(C)(=O)=O
cytotoxicity at 70.5 h: 7.83%

COc1cccc(CN(C)C(C)c2ccon2)c1OCCn1ccnc1 (centres undefined)
cytotoxicity at 70.5 h: -19.9%

CN(CC(=O)NC(c1ccc(F)cc1)C(F)(F)F)S(C)(=O)=O (centres undefined)
cytotoxicity at 70.5 h: -0.794%

Cc1nc(NC(=O)C2CCCN(C(=O)C3CC3)C2)sc1C (centres undefined)
cytotoxicity at 70.5 h: -14.8%

CN1CCCC1CNC(=O)CCCOc1cccc(Br)c1 (centres undefined)
cytotoxicity at 70.5 h: 17.7%

COCCCN(Cc1ccncc1)c1cc(C)ncn1
cytotoxicity at 70.5 h: 6.24%

O=C(CCc1nc2ccccc2[nH]1)Nc1ccc2c(c1)OCC(=O)N2
cytotoxicity at 70.5 h: -11.6%

Cn1nc(Br)c2c(=O)n(CCc3ccccc3)cnc21
cytotoxicity at 70.5 h: -8.29%

COc1ccc(CN2CCOC[C@H](Oc3cccnc3)C2)cc1
cytotoxicity at 70.5 h: 4.36%

COc1ccccc1CN(C)C(=O)NCc1c(C)cc(C)[nH]c1=O
cytotoxicity at 70.5 h: -0.543%

COCCN(CC1CCCN(C2Cc3ccccc3C2)C1)C(=O)COC (centres undefined)
cytotoxicity at 70.5 h: -7.6%

CCc1nncn1CCNC(=O)Nc1ccc(OC)c(C)c1
cytotoxicity at 70.5 h: -7.19%

Cc1cc(C)c(CNC(=O)NCC(c2ccccc2)N(C)C)c(=O)[nH]1 (centres undefined)
cytotoxicity at 70.5 h: 7.25%

COc1ccc(C(=O)NC2CC2)c(OC)c1
cytotoxicity at 70.5 h: -11.5%

COc1ccccc1CN(CC1CCCO1)C(=O)c1csnn1 (centres undefined)
cytotoxicity at 70.5 h: -12.2%

CCNC(=O)C1(Cc2cc(-c3ccccc3)no2)CCCN(C(C)C)C1 (centres undefined)
cytotoxicity at 70.5 h: -6.54%

COc1cc(F)ccc1-c1cc(CO)ccn1
cytotoxicity at 70.5 h: -8.15%

CN1CCCCC1Cc1nc(Cc2cccc(F)c2)no1 (centres undefined)
cytotoxicity at 70.5 h: -7.83%

CCCOc1cccc(NS(=O)(=O)c2cc(C(=O)O)cs2)c1
cytotoxicity at 70.5 h: 4.51%

CC(C)OC(=O)N1C[C@H]2CC[C@@H]1CN(C(=O)c1ccccn1)C2
cytotoxicity at 70.5 h: 10.5%

Cc1ccc(N2CCC3(CCCN3Cc3ccn(C)n3)CC2)nn1
cytotoxicity at 70.5 h: -2.31%

CCNC(=O)c1ncn2c1CN(C)S(=O)(=O)c1ccccc1-2
cytotoxicity at 70.5 h: -8.36%

Cc1cnc(CN2CC=C(c3c[nH]c4ncccc34)CC2)o1
cytotoxicity at 70.5 h: 5.53%

Cc1cc(C)n(C2CN(CC(O)c3ccc4c(c3)OCO4)C2)n1 (centres undefined)
cytotoxicity at 70.5 h: -2.16%

Cc1nc(CC(=O)N2CCC[C@H]2c2nc(C(C)C)no2)cs1
cytotoxicity at 70.5 h: -1.93%

Cc1cnn(CC2CN(Cc3nc(N)c4ccccc4n3)CCO2)c1 (centres undefined)
cytotoxicity at 70.5 h: 22.8%

O=C(NCCCO)Nc1cnc2cc(Cl)ccc2c1O
cytotoxicity at 70.5 h: -1.44%

COc1ccc(-c2noc(C(CC(C)C)N3CCCCC3=O)n2)cn1 (centres undefined)
cytotoxicity at 70.5 h: -0.898%

CCCn1ccc2ccc(NC(=O)N(C)CCOC)cc21
cytotoxicity at 70.5 h: -1.44%

CC1c2ncc(CN3CCN(C)CC3)n2CCN1Cc1cnn(C)c1 (centres undefined)
cytotoxicity at 70.5 h: 13.6%

Cc1nn(C)c2nc(N3CCCCC3c3cccnc3)sc12 (centres undefined)
cytotoxicity at 70.5 h: -4.09%

Cn1ncc(Cl)c1C(=O)NCCN1CCC(O)(c2ccc(F)cc2)CC1
cytotoxicity at 70.5 h: 5.46%

Cn1cccc1C(=O)N1CCC2(CCCN2Cc2ccccc2)CC1
cytotoxicity at 70.5 h: -9.97%

CN(C)C1(CNc2nccc(C3CCCC3)n2)CCOCC1
cytotoxicity at 70.5 h: -4.46%

CC(=O)c1cc(CN2C[C@@H](C(=O)O)[C@H](c3cccnc3)C2)cs1
cytotoxicity at 70.5 h: -7.32%

Cc1ccc(CNc2ccc(C(=O)N3CCNC(=O)C3)cn2)cc1
cytotoxicity at 70.5 h: 4.12%

CNc1nc(C(=O)N2CCCC(COc3ccc(F)cc3)C2)cs1 (centres undefined)
cytotoxicity at 70.5 h: 3.44%

Cc1ccoc1C(=O)N(CCN(C)C)Cc1ccccn1
cytotoxicity at 70.5 h: -2.01%

CN(Cc1ccc2c(c1)OCO2)C(=O)Cn1cccnc1=O
cytotoxicity at 70.5 h: 17.3%

Cc1cc2cc(CNC3CCN(CC(=O)N(C)C)CC3)oc2cc1C
cytotoxicity at 70.5 h: -3.5%

O=C1CN(C(=O)C2CCOC2)CCN1Cc1ccc(Cl)cc1 (centres undefined)
cytotoxicity at 70.5 h: 23.8%

O=C(N[C@@H]1CN(c2ncccn2)C[C@@H]2CCCO[C@@H]21)c1cccnc1
cytotoxicity at 70.5 h: 7.96%

O=C(c1ccccc1F)N1CC(c2nc(-c3ccc[nH]c3=O)no2)C1
cytotoxicity at 70.5 h: -2.53%

Cc1ccc(CN2CCN(C(=O)c3ccc(CO)cc3)C(C)C2=O)cc1 (centres undefined)
cytotoxicity at 70.5 h: -17.6%

COCc1nccc(C2CCCN(Cc3ccccc3C#N)C2)n1 (centres undefined)
cytotoxicity at 70.5 h: -6.99%

COC[C@@H]1CCC[C@@]12CN(C(=O)N1CCCC1)CCO2
cytotoxicity at 70.5 h: -12.3%

O=C1CNc2ncnc(Nc3cccc(Cn4cccn4)c3)c2N1
cytotoxicity at 70.5 h: -6.61%

O=C(CCc1ccccn1)N1CCc2cc(Cl)cc(Cl)c2C1
cytotoxicity at 70.5 h: 29.3%

CCCn1nc(C(=O)N(C)Cc2cnn(C)c2)ccc1=O
cytotoxicity at 70.5 h: 0.0623%

Cc1ccc(Cc2cnc(C3CCNCC3)cn2)cc1
cytotoxicity at 70.5 h: -12.9%

Cc1ccc(S(=O)(=O)N2CCOCC2C#N)cc1Br (centres undefined)
cytotoxicity at 70.5 h: -6.92%

CCc1cnccc1C(=O)NC1CCN(C(=O)C2CCCCC2)CC1
cytotoxicity at 70.5 h: -8.95%

COCCN1CCCC12CCN(Cc1cncn1C)CC2
cytotoxicity at 70.5 h: -1.01%

Cc1ncc(CNC2CC(=O)N(CCc3cccc(Cl)c3)C2)n1C (centres undefined)
cytotoxicity at 70.5 h: -9.98%

Cc1ncc2c(n1)CCN(Cc1nc3ccccc3o1)C2
cytotoxicity at 70.5 h: 0.854%

CCC(=O)N(CCN(C)C)Cc1ccc(F)c(F)c1
cytotoxicity at 70.5 h: -13.7%

CCN(C(=O)C(C)C)C(c1cccnc1)c1ccc2c(c1)CCO2 (centres undefined)
cytotoxicity at 70.5 h: 18.4%

Cc1ccc(C)n1C(C)C(=O)N1CCCN(Cc2cscn2)CC1 (centres undefined)
cytotoxicity at 70.5 h: -0.61%

Cc1cc(C(=O)N2CCN(Cc3ccsc3)CC2)c(C)n1C1CC1
cytotoxicity at 70.5 h: -14.9%

c1ccc2c(c1)CC(CNCc1ccncc1)(N1CCCCC1)C2
cytotoxicity at 70.5 h: -4.17%

COc1ccc(CNC(=O)Cc2csc(C(C)=O)c2)cc1
cytotoxicity at 70.5 h: -8.65%

O=C(NC1CCCC1)c1n[nH]c2c1CNCC2
cytotoxicity at 70.5 h: -12.1%

CC(C)COCC(NC(=O)c1cnccn1)c1ccco1 (centres undefined)
cytotoxicity at 70.5 h: -10.5%

CC(C)(NC(=O)Cc1ccccc1F)C(C)(C)C(=O)O
cytotoxicity at 70.5 h: -0.854%

COC1CCN(S(=O)(=O)NCC2COc3ccccc3C2)CC1 (centres undefined)
cytotoxicity at 70.5 h: -4.76%

CCN1CCC(NC(=O)CN2CCCC2Cn2cc(C)cn2)CC1 (centres undefined)
cytotoxicity at 70.5 h: 0.649%

Cc1ccc(F)cc1-n1c(CCCN2CCOCC2)n[nH]c1=O
cytotoxicity at 70.5 h: -7.44%

O=C(Nc1ccccc1)C1CN(Cc2nccs2)CC12CCOCC2 (centres undefined)
cytotoxicity at 70.5 h: 10%

CC(C)c1ncncc1C(=O)NCCN1CCCC1
cytotoxicity at 70.5 h: 5.71%

Cn1nc2c(cc1=O)CN(CC(=O)Nc1nncs1)CC2
cytotoxicity at 70.5 h: -1.1%

COCCNc1ncnc2c1CCN(C(=O)CC1CCC(=O)N1)CC2 (centres undefined)
cytotoxicity at 70.5 h: -12.7%

Cn1cc(N2C(=O)CC[C@@H]3[C@H]2CCN3CC2CCOCC2)cn1
cytotoxicity at 70.5 h: -14.3%

O=C(C1CCOC1)N1CCc2ncc(CNc3ccccn3)n2CC1 (centres undefined)
cytotoxicity at 70.5 h: 0.605%

c1ccc(-c2nnc(CN3CCOC(Cn4cccn4)C3)o2)cc1 (centres undefined)
cytotoxicity at 70.5 h: -6.72%

CSc1ncc(C(=O)N2C[C@@H](NC(C)=O)[C@H](c3ccc(C)cc3)C2)cn1
cytotoxicity at 70.5 h: -5.41%

COc1ccc(-c2ccncc2)cc1CNC1CCCC1
cytotoxicity at 70.5 h: -4.27%
